In ChEMBL document CHEMBL1201862, “PubChem BioAssay data set” (2004) one finds EC50, AC50 and CC50 data, which are given here for 26 compounds.

In assay [1] the target is T1, Heat shock factor protein 1 (Mus musculus, UniProt P38532).
T1 sequence (P38532 whole entry): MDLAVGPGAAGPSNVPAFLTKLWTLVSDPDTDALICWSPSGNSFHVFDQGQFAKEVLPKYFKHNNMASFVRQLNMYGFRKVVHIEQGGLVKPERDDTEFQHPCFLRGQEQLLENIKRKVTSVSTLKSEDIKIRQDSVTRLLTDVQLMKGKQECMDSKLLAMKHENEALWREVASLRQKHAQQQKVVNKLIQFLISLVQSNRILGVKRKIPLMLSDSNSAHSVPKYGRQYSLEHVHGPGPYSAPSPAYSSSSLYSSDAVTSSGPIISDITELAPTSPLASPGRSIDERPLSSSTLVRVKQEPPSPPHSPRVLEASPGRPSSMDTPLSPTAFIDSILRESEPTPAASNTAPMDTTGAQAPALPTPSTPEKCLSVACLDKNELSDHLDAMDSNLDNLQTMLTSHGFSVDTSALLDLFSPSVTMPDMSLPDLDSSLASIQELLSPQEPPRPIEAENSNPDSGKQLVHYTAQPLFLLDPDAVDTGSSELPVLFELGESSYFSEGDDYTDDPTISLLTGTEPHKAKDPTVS
In words: enhancement of HSF1-driven luciferase signal – cell-based, NIH3T3, luminescence, dose retest, confirmation (AID 435004).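 Also: stress induced by proteasome inhibitor MG132 added 30 min after compound; luciferase reporter driven by HSF1 response element in NIH3T3 cells; actives raise luminescence as potentiators of the MG132 stress response.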 The format is functional.

A short description of assay [2]: Trypanosoma cruzi growth suppression in host cells – NIH3T3 host cells, beta-gal luminescence, confirmation (AID 2044).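 Also: intracellular parasites grown in NIH/3T3 mouse fibroblasts as host cells; luminescent beta-galactosidase reporter signal from transgenic T. cruzi replicating inside host cells; inhibitors lower the luminescence signal.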 Type of assay: functional, cell-based.
The next assay deals with Paired box protein Pax-8 (Homo sapiens, UniProt Q06710). Nature of the assay: PAX8 transcriptional activity inhibition in RMG-I – RMG-I cells, luciferase, cherry-pick, dose response (AID 687027).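 Also: luciferase reporter driven by Pax8 target thyroperoxidase promoter measured by SteadyGlo luminescence.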 Type of assay: functional, cell-based.
Paired box protein Pax-8, sequence (Q06710 whole entry): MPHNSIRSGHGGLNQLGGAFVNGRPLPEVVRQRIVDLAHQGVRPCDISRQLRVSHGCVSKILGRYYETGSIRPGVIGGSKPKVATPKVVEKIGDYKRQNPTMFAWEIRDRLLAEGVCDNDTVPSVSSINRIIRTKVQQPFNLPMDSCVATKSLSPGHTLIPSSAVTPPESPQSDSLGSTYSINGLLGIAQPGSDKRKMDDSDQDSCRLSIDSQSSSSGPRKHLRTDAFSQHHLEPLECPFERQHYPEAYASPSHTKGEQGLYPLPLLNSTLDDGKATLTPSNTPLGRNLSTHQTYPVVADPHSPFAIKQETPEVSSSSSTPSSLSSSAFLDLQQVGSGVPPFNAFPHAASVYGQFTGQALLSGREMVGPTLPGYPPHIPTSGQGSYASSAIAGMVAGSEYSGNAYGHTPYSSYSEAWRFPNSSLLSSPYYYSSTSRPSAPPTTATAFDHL
The nature of assay [3]: NIH3T3 cell viability loss – ATP luminescence, mouse fibroblasts, counter-screen, dose response (AID 2010).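 Also: cells exposed to compound for about 90 hours before reading.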 Type of assay: functional, cell-based.
In a further assay the target is T2, Protein RecA (Mycobacterium tuberculosis, UniProt P9WHJ3).
T2 sequence (P9WHJ3 whole entry): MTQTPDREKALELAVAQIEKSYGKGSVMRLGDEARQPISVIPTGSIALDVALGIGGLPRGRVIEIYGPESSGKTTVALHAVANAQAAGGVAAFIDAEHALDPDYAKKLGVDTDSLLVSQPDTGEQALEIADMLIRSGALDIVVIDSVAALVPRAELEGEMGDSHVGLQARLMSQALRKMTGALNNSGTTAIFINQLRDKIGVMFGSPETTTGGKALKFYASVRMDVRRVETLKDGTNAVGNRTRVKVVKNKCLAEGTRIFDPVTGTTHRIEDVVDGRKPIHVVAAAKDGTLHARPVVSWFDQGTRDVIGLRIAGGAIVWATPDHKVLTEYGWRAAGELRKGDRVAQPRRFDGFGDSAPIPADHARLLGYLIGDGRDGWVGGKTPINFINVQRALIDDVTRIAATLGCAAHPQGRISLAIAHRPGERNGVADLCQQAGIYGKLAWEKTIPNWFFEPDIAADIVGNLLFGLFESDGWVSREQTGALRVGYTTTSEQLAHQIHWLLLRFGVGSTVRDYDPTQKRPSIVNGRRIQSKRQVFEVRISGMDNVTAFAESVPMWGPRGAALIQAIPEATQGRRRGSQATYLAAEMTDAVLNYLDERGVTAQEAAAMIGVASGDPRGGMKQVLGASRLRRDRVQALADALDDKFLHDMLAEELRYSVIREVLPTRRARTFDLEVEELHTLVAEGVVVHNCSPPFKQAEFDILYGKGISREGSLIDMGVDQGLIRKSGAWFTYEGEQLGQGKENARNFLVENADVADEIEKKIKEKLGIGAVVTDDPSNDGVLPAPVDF
In words: Fluorescence Cell-Free Homogeneous Dose Retest to Identify Inhibitors of RecA-Intein Splicing Activity. [Related pubchem assays (depositor defined):AID2097, AID2223, AID489010, AID492950]. The format is functional.

Assay [4] can be described thus: Luminescence Cell-Based Dose Confirmation HTS to Identify Inhibitors of Platelet Dense Granule Release. [Related pubchem assays: 1663 (Primary HTS), 1678 (Summary of Project)]. Type of assay: functional.
Assay [5] addresses Luciferin 4-monooxygenase (Photinus pyralis, UniProt P08659). In words: inhibition of purified Photinus pyralis luciferase – biochemical, luminescence, dose response (AID 1891).
The next assay addresses T3, Cytochrome P450 1A2 (Homo sapiens, UniProt P05177).
T3 sequence (P05177 whole entry): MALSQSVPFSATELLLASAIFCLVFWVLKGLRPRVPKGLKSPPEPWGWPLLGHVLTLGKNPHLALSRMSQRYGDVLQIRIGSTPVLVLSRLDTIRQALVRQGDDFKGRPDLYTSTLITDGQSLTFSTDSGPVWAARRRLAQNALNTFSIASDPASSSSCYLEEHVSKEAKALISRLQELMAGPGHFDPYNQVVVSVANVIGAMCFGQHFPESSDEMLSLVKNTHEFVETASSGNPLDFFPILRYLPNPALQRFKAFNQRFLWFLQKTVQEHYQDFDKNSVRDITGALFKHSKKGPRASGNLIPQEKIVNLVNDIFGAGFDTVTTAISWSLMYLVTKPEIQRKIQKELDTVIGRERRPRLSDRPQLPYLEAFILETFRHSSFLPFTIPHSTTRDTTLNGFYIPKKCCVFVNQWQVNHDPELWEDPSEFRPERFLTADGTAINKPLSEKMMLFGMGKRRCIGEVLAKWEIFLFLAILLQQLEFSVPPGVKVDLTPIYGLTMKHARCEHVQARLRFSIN

Assay [6] in a line: Luminescence Cell-Based Dose Confirmation HTS to Identify Activators of 5'UTR Stem-Loop Driven Alpha-Synuclein mRNA Translation in H4 Neuroglioblastoma Cells. [Related pubchem assays: 1829 (Project Summary), 1814 (Primary HTS)]. Type of assay: functional.
The nature of assay [7]: Luminescence Cell-Based Dose Response HTS to Identify Activators of Luciferase Translation or Activity in H4 […] Cells. [Related pubchem assays: 1829 (Project Summary), 1814 (Primary HTS)]. The format is functional.
The test system of another assay is H4. Nature of the assay: Luminescence Cell-Based Dose Response HTS to Identify Activators of 5'UTR Stem-Loop Driven Prion Protein mRNA Translation in H4 Neuroglioblastoma Cells. [Related pubchem assays: 1829 (Project Summary), 1814 (Primary HTS)]. Type of assay: functional. The following applies: Homo sapiens.
Assay [8] can be described thus: microbe, parasite or virus in culture. Type of assay: functional. The note with it: Mycobacterium tuberculosis.
The next assay concerns Streptococcus. Nature of the assay: GAS UMAA2166 growth inhibition – luminescence, BacTiterGlo, counter-screen for streptokinase expression inhibitor project, dose response (AID 1915).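 Also: potency for reduction of bacterial viability or growth.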 Type of assay: functional, organism-based. Background: Counterscreens check selectivity or assay interference.
For assay [9], the system named is Streptococcus sp. 'group A'. Nature of the assay: Streptococcus pyogenes SK(-)GAS viability under kanamycin – luminescence, BacTiterGlo, confirmation, counter-screen for streptokinase expression inhibitor project, dose response (AID 1900). Type of assay: functional, organism-based.
Another assay deals with INS1. Nature of the assay: INS-1E survival protection against cytokine death – cell-based, luminescence, retest, dose response (AID 449756).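 Also: cell death triggered by IL-1 beta plus TNF-alpha plus IFN-gamma mixture; protective hits raise ATP signal compared with cytokine alone wells.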 Type of assay: functional. The note with it: Rattus norvegicus.
Assay [10] can be described thus: Luminescence Cell-Based Dose Response HTS to Identify Inhibitors of 5'UTR Stem-Loop Driven Prion Protein mRNA Translation in H4 Neuroglioblastoma Cells. [Related pubchem assays: 1827 (Project Summary), 1813 (Primary HTS)]. Type of assay: functional.
Assay [11] in a line: luciferase reporter signal suppression in cells – H4 neuroglioma cells, luminescence, dose response (AID 1990). Type of assay: functional, cell-based. (In general: In a reporter assay the amount or activity of a reporter protein is the signal.)
The nature of assay [12]: alpha-synuclein stem-loop luciferase translation blockers – H4 neuroglioma cells, luminescence, confirmation (AID 1988). Type of assay: functional, cell-based.

Calls of active or inactive are those of the source. Rule as the data show it, for most assays here: actives have a measured EC50 and inactives only a lower limit.

Luciferin 4-monooxygenase, sequence (P08659 whole entry): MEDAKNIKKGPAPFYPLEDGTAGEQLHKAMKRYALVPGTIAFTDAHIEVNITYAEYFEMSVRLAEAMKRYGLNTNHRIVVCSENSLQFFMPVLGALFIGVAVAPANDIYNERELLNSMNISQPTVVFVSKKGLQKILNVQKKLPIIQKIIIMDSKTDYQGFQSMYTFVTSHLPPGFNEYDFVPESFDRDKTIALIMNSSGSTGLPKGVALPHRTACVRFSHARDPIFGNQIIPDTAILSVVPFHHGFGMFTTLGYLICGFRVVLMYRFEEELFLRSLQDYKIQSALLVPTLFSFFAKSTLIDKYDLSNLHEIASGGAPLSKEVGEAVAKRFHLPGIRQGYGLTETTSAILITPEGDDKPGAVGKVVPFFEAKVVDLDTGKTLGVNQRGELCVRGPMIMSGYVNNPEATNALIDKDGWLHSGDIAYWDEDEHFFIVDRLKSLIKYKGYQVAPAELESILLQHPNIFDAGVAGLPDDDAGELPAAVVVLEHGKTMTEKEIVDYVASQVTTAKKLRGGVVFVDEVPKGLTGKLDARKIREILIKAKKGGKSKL

As a reminder, the EC50 is the concentration that produces a half-maximal response. For `Cc1ccc2nc(-c3ccc4c(c3)OCCO4)cc(C(=O)O)c2c1`, in assay [1], the EC50 is > 260 µM (inactive). Usually AC50 stands for the concentration giving half of the maximal activity seen. With `O=C(NC1CCCCC1)C(c1cccs1)N(C(=O)Cc1c[nH]c2ccccc12)c1ccc(F)cc1` (stereo not drawn), the EC50 was 0.871 µM (active) in [2] and 9.47 µM (active) in assay [3]. The AC50 at Paired box protein Pax-8 is 11.7 µM (active). In the case of `Cc1n[nH]c(O)c1[C@@H](c1ccccc1[N+](=O)[O-])C(C#N)C#N`, the concentration for a half-maximal effect (EC50) at Protein RecA is 2.63 µM (active). As for `COC(=O)C1CSC(C(=O)OC)N1C(=O)Nc1ccccc1` (stereo not drawn), the EC50 in [4] and in [5] was > 112 µM (not active) each time. On Cytochrome P450 1A2, the AC50 is 25.1 µM (inconclusive). Take `CC(C)(CO)NCC(O)COc1ccc2c(c1)CCC2` (stereo not drawn): the EC50 in [4] and in assay [5] was > 112 µM (not active) throughout. Turning to `CCN(CC)S(=O)(=O)c1ccc(OC)c(NC(=O)c2cc3c(=O)n4ccccc4nc3s2)c1`, the EC50 in assay [1] is > 260 µM (inactive).

Regarding `CN(Cc1ccccc1)C(=O)CCC1CCN(C(=O)CC2=CCCCC2)CC1`, in [1], the EC50 is > 260 µM (inactive). Consider `Cc1c(C(=O)N(Cc2ccncc2)CC2CCCO2)oc2c(F)cccc12` (stereo not drawn), for which the EC50 in assay [1] is > 260 µM (inactive). In the case of `COC(=O)c1cc(NC2c3ccccc3C(=O)N2c2cccnc2)cc(C(=O)OC)c1` (stereo not drawn), the EC50 in [4] and in assay [5] was > 112 µM (not active) in each case. As for `Cc1ccc(C(=O)NCCn2cc(SCC(=O)Nc3nnc(C)s3)c3ccccc32)cc1`, the EC50 is > 112 µM (not active) in assay [4]; 7.83 µM (active) in assay [6]; 23.2 µM (active) in assay [7]; > 112 µM (not active) in assay [5]; > 120 µM (not active) in the assay on H4.

As for `Cc1ccc(O)c(C(=O)c2cnc3c(c2)CN(CCC(C)C)C(=O)N3)c1`, the EC50 in assay [1] was > 260 µM (inactive).

As to `Cc1cc(C)n2nc(SCc3cc(=O)oc4cc(C)c(C)cc34)nc2n1`, the EC50 in assay [4] and in assay [5] was > 112 µM (not active) each time.

Turning to `CCCCc1ccc(-c2ccc(Br)cc2)nc1`, in assay [1], the EC50 is > 260 µM (inactive).

Regarding `COc1ccc(CN2CCCC(C(=O)c3ccc(SC)cc3)C2)cc1Cn1cccn1` (stereo not drawn), the CC50 in assay [8] is > 40 µM (active).

`O=C(NC1CCCCC1)C1CCCN1S(=O)(=O)c1cccc2nsnc12` (stereo not drawn): the EC50 in assay [1] is > 260 µM (inactive). Consider `Cc1sc2ncnc(N3CCC(C(=O)NCC(=O)Nc4ccc(F)c(F)c4)CC3)c2c1C`, for which the EC50 was 8.01 µM (active) in the assay on Streptococcus and 4.44 µM (active) in assay [9]. Also, the CC50 in assay [8] is 30.4 µM (active). With `CCC(=O)N1c2ccc(S(=O)(=O)CCC(=O)N3CCN(c4ccccc4F)CC3)cc2CC1C` (stereo not drawn), the EC50 in assay [4] and in [5] was > 112 µM (not active) throughout. Consider `CCOc1ccc2nc(NC(=O)c3ccc(C)o3)sc2c1`, for which the EC50 in assay [4] was 5.87 µM (active); in assay [5], 0.562 µM (active).

With `CN1C(C(=O)NCc2ccc(OC(F)(F)F)cc2)CC2Cn3c(nc4cc(Cl)c(Cl)cc43)C21` (stereo not drawn), the CC50 in assay [8] is 34.1 µM (active). For the compound `Cc1cccc(C2c3[nH]c4ccccc4c3CCN2Cc2cnn(-c3ccc(F)cc3)c2)n1` (stereo not drawn), the EC50 in assay [1] is > 260 µM (inactive).

Regarding `CCOc1ccc(N2C=Nc3ccc(OCC)cc3C2)cc1`, the CC50 in assay [8] was > 40 µM (active).

For `Cc1onc(-c2ccccc2)c1C(=O)N=C(N)c1ccc(Cl)cc1`, the EC50 is 28.4 µM (active) in [4] and > 112 µM (not active) in [5]. On to `CN(C)CCCN(C(=O)CCOc1ccccc1)c1nc2c(F)cccc2s1`, for which the EC50 in [2] is 0.152 µM (active); in assay [3], 7.17 µM (active). The AC50 at Paired box protein Pax-8 was 7.17 µM (active). On to `CC(C)(C)CN1CCC(Oc2cccc(C(=O)NCCCOc3cccnc3)c2)CC1`, for which the half-maximal activity concentration (AC50) in the assay on INS1 is 1.25 µM (active). As to `CC(Nc1cc(N2CCNCC2)ccc1[N+](=O)[O-])c1ccccc1` (stereo not drawn), the EC50 in assay [10] was > 120 µM (not active); in [11] it was > 120 µM (not active); in assay [1] it was > 260 µM (inactive); in [12] it was 33.7 µM (active). `O=S(=O)(CCc1ccccc1)/N=C/c1cccs1`: the EC50 in [4] and in assay [5] was > 112 µM (not active) each time.
